pIC50: −log10 of the molar value. Several values for one entry are separate records, joined by “and”; a condition that tells them apart may be missing. Equal entries are not always repeated.
Legend:
[1] = molecular target: T1, Adenosine receptor A1 (Homo sapiens, UniProt P30542); test: biochemical; format: cell-based, CHO
T1 sequence (P30542 whole entry): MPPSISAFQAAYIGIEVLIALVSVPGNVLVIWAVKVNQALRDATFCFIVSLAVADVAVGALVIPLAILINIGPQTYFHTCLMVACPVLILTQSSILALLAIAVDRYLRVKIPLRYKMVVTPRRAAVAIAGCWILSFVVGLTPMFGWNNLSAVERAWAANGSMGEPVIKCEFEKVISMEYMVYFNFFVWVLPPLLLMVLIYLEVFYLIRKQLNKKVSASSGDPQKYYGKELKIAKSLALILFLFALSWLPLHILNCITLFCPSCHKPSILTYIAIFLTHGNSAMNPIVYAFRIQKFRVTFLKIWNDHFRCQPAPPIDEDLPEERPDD
Description: Displacement of specific [3H]DPCPX binding at human adenosine A1 receptor expressed in CHO cells.

[2] = molecular target: T2, Adenosine receptor A2b (Homo sapiens, UniProt P29275); test: biochemical; format: cell-based, HEK293
T2 sequence (P29275 whole entry): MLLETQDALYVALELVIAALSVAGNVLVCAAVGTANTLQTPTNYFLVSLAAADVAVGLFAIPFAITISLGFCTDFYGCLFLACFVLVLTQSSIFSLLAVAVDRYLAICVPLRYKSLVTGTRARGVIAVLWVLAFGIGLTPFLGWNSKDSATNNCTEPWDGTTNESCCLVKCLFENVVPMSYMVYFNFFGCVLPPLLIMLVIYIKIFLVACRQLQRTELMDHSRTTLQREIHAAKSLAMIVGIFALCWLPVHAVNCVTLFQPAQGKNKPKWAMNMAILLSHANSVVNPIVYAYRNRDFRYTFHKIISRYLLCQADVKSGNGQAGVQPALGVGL
Description: Displacement of specific [3H]DPCPX binding at human adenosine A2B receptor expressed in HEK293 cells.

[3] = system: Monkey; format: functional, Cercopithecidae, Eye
Description: Effect on IOP (intraocular pressure) was determined in monkey; compared to control that is 20.7 mmHg

[4] = molecular target: Adenosine receptor A2a (Homo sapiens, UniProt P29274); test: biochemical; format: cell-based, HEK293
Chain of Adenosine receptor A2a (P29274 whole entry): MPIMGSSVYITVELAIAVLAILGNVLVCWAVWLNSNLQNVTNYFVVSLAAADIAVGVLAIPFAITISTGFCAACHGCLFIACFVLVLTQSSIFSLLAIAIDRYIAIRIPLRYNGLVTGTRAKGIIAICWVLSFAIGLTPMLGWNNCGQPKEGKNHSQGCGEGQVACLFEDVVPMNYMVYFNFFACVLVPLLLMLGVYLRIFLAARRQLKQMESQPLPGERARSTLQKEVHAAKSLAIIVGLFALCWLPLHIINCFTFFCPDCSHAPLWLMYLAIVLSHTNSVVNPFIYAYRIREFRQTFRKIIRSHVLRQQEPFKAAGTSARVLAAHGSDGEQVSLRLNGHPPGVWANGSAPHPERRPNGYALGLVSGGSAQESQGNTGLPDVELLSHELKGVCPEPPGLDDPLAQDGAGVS
Description: Displacement of specific [3H]-CGS- 21680 binding at human adenosine A2A receptor expressed in HEK293 cells

Row | pIC50 [1] | pIC50 [2] | pIC50 [4] | SMILES | Effect [3]
1 |  |  | 6.12 | CCCCc1nc2n[nH]cc2c2nc(-c3cccc(Cl)c3)nn12 | 
2 |  |  | < 5.00 | CCCCc1nc2cccc(Cl)c2c2nc(-c3ccccc3)nn12 | 
4 | < 5.00 | < 5.00 | < 5.00 | COCCc1nc2nc[nH]c2c2nc(-c3ccc(-c4ccccc4)cc3)nn12 | 

Second part, the compound before the results:

Row | SMILES | pIC50 [1] | pIC50 [2] | pIC50 [4] | Effect [3]
7 | CCCCc1nc2[nH]cnc2c2nc(-c3ccc(C(F)(F)F)cc3)nn12 | < 5.00 | < 5.00 |  | 19.6 mmHg and 19.1 mmHg
8 | CCCCc1nc2n[nH]cc2c2nc(-c3ccccc3Cl)nn12 |  |  | 6.89 | 
11 | O=C(O)CCc1nc2nc[nH]c2c2nc(-c3ccc(-c4ccccc4)cc3)nn12 |  |  | < 5.00 | 
12 | CCCCc1nc2nc[nH]c2c2nc(-c3ccc(-c4ccccc4)cc3)nn12 | < 5.00 | < 5.00 | < 5.00 | 
14 | O=C(O)CCCc1nc2nc[nH]c2c2nc(-c3ccc(Cl)cc3)nn12 | < 5.00 | < 5.00 | < 5.00 | 

Reference: ChEMBL document CHEMBL1146808, “Structure-activity relationships of adenosine A3 receptor ligands: new potential therapy for the treatment of glaucoma” (Bioorg Med Chem Lett, 2004)
